Data taken from patent US11596639B2, “Substituted indole Mcl-1 inhibitors” (Vanderbilt University, priority 2016, dated 2023).

Each molecule was assayed against Mcl-1 (Homo sapiens (Human), UniProt Q07820) (assay: Fluorescence polarization anisotropy (FPA) competition assay, FITC-Bak or FITC-Bim BH3 peptide). Settings: read-out: Ki for Inhibition of Mcl-1 by FPA assay.
Type: binding

Chain of Mcl-1 (Q07820 172-327): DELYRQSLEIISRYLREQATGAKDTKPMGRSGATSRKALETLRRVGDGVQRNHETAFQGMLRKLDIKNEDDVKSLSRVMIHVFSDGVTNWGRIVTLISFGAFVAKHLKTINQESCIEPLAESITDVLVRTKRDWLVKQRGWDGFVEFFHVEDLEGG

First: Cc1cc(OCCCc2c(C(=O)NC3CCC(C(=O)O)CC3)[nH]c3c(-c4c(C)ncnc4C)c(Cl)ccc23)cc(C)c1Cl (single isomer, unassigned) [Example 746, 4-(6-Chloro-3-(3-(4-chloro-3,5-dimethylphenoxy)propyl)-7-(4,6-dimethylpyrimidin-5-yl)-1H-indole-2-carboxamido)cyclohexane-1-carboxylic acid]
Second: Cc1cc(OCCCc2c(C(=O)N3CCC(C(=O)O)C3)[nH]c3c(-c4c(C)ncnc4C)c(Cl)ccc23)cc(C)c1Cl (stereo not shown) [Example 745, 1-[6-Chloro-3-[3-(4-chloro-3,5-dimethyl-phenoxy)propyl]-7-(4,6-dimethylpyrimidin-5-yl)-1H-indole-2-carbonyl]pyrrolidine-3-carboxylic acid]
The Ki of the first is 8.5-fold lower: 5.2 nM for the first, 44 nM for the second. The first binds more tightly here.

First: Cc1cc(OCCCc2c3n(c4c(-c5c(C)cccc5C)c(Cl)ccc24)CCCN(c2cc(C(=O)O)c4ccn(C)c4c2)C3=O)cc(C)c1Cl [Example 91, 6-[8-Chloro-11-[3-(4-chloro-3,5-dimethyl-phenoxy)propyl]-7-(2,6-dimethylphenyl)-1-oxo-4,5-dihydro-3H-[1,4]diazepino[1,2-a]indol-2-yl]-1-methyl-indole-4-carboxylic acid]
Second: Cc1cc(OCCCc2c3n(c4c(-c5c(C)nn(C)c5C)c(Cl)ccc24)CCCN(c2cc4c(c(C(=O)O)c2)OCCO4)C3=O)cc(C)c1Cl [Example 25, 7-(8-Chloro-11-(3-(4-chloro-3,5-dimethylphenoxy)propyl)-1-oxo-7-(1,3,5-trimethyl-1H-pyrazol-4-yl)-4,5-dihydro-1H-[1,4]diazepino[1,2-a]indol-2(3H)-yl)-2,3-dihydrobenzo[b][1,4]dioxine-5-carboxylic acid]
The Ki of the first is 6.6-fold higher: 7.3 nM for the first, 1.1 nM for the second.

Going from Cc1cc(OCCCc2c3n(c4c(-c5c(C)nn(C)c5C)c(Cl)ccc24)CCCN(Cc2cc(C(=O)O)cc(N4CCN(C(=O)c5ccco5)CC4)n2)C3=O)cc(C)c1Cl [Example 9, 2-((8-Chloro-11-(3-(4-chloro-3,5-dimethylphenoxy)propyl)-1-oxo-7-(1,3,5-trimethyl-1H-pyrazol-4-yl)-4,5-dihydro-1H-[1,4]diazepino[1,2-a]indol-2(3H)-yl)methyl)-6-(4-(furan-2-carbonyl)piperazin-1-yl)isonicotinic acid] to Cc1cc(OCCCc2c3n(c4c(-c5c(C)nn(C)c5C)c(Cl)ccc24)CCCN(Cc2cc(C(=O)O)cc(N4CCN(S(=O)(=O)CCc5ccccc5)CC4)n2)C3=O)cc(C)c1Cl [Example 38, 2-((8-Chloro-11-(3-(4-chloro-3,5-dimethylphenoxy)propyl)-1-oxo-7-(1,3,5-trimethyl-1H-pyrazol-4-yl)-4,5-dihydro-1H-[1,4]diazepino[1,2-a]indol-2(3H)-yl)methyl)-6-(4-(phenethylsulfonyl)piperazin-1-yl)isonicotinic acid], the Ki rises from 20 nM to 62 nM (3.1-fold).

Compared with Cc1cc(OCCCc2c3n(c4c(-c5c(C)nn(C)c5C)c(Cl)ccc24)CCCN(Cc2cc(C(=O)O)cc(N4CCN(S(=O)(=O)C5CC5)CC4)n2)C3=O)cc(C)c1Cl [Example 47, 2-((8-Chloro-11-(3-(4-chloro-3,5-dimethylphenoxy)propyl)-1-oxo-7-(1,3,5-trimethyl-1H-pyrazol-4-yl)-4,5-dihydro-1H-[1,4]diazepino[1,2-a]indol-2(3H)-yl)methyl)-6-(4-(cyclopropylsulfonyl)piperazin-1-yl)isonicotinic acid], Cc1cc(OCCCc2c3n(c4c(-c5c(C)nn(C)c5C)c(Cl)ccc24)CCCN(Cc2cc(C(=O)O)cc(N4CCNCC4)n2)C3=O)cc(C)c1Cl [Example 10, 2-((8-Chloro-11-(3-(4-chloro-3,5-dimethylphenoxy)propyl)-1-oxo-7-(1,3,5-trimethyl-1H-pyrazol-4-yl)-4,5-dihydro-1H-[1,4]diazepino[1,2-a]indol-2(3H)-yl)methyl)-6-(piperazin-1-yl)isonicotinic acid] is 3-fold higher in Ki: 19 nM for the first, 57 nM for the second. The first binds more tightly here.

First: CC[C@@H]1Cn2c(c(CCCOc3cc(C)c(Cl)c(C)c3)c3ccc(Cl)c(-c4c(C)nn(C)c4C)c32)C(=O)N1 [Example 24, (R)-7-chloro-10-(3-(4-chloro-3,5-dimethylphenoxy)propyl)-3-ethyl-6-(1,3,5-trimethyl-1H-pyrazol-4-yl)-3,4-dihydropyrazino[1,2-a]indol-1(2H)-one]
Second: Cc1cc(OCCCc2c3n(c4c(-c5c(C)nn(C)c5C)c(Cl)ccc24)CCCN(C2=CNC(C(=O)O)=C(O)N2)C3=O)cc(C)c1Cl [Example 73, 5-(8-Chloro-11-(3-(4-chloro-3,5-dimethylphenoxy)propyl)-1-oxo-7-(1,3,5-trimethyl-1H-pyrazol-4-yl)-4,5-dihydro-1H-[1,4]diazepino[1,2-a]indol-2(3H)-yl)-3-hydroxy-1,4-dihydropyrazine-2-carboxylic acid]
The Ki of the first is higher: 25 nM for the first, less than 1 nM for the second.

COc1ccc(N2C[C@@H](C)n3c(c(CCCOc4cc(C)c(Cl)c(C)c4)c4ccc(Cl)c(-c5c(C)nn(C)c5C)c43)C2=O)c2c1c(C)c(C(=O)O)n2C [Example 351, (R)-7-(7-Chloro-10-(3-(4-chloro-3,5-dimethylphenoxy)propyl)-4-methyl-1-oxo-6-(1,3,5-trimethyl-1H-pyrazol-4-yl)-3,4-dihydropyrazino[1,2-a]indol-2(1H)-yl)-4-methoxy-1,3-dimethyl-1H-indole-2-carboxylic acid] and Cc1cc(OCCCc2c3n(c4c(-c5c(C)nn(C)c5C)c(Cl)ccc24)[C@H](C)CN(c2cccc4c2c(C(=O)O)nn4C)C3=O)cc(C)c1Cl [Example 127, 4-[(4R)-7-chloro-10-[3-(4-chloro-3,5-dimethyl-phenoxy)propyl]-4-methyl-1-oxo-6-(1,3,5-trimethylpyrazol-4-yl)-3,4-dihydropyrazino[1,2-a]indol-2-yl]-1-methyl-indazole-3-carboxylic acid] cannot be ordered by Ki: less than 1 nM for the first, less than 1 nM for the second.

Compared with Cc1cc(OCCCc2c3n(c4c(-c5c(C)nn(C)c5C)c(Cl)ccc24)[C@H](C)CN(c2cn(C)c4ccc(C(F)(F)F)cc24)C3=O)cc(C)c1Cl (single isomer, unassigned) [Example 200], Cc1cc(OCCCc2c3n(c4c(-c5c(C)nn(C)c5C)c(Cl)ccc24)[C@H](C)CN(c2cnc4ccc(C(=O)O)cn24)C3=O)cc(C)c1Cl [Example 473, (R)-3-(7-chloro-10-(3-(4-chloro-3,5-dimethylphenoxy)propyl)-4-methyl-1-oxo-6-(1,3,5-trimethyl-1H-pyrazol-4-yl)-3,4-dihydropyrazino[1,2-a]indol-2(1H)-yl)imidazo[1,2-a]pyridine-6-carboxylic acid] is 1.6-fold lower in Ki: 6.6 nM for the first, 4.1 nM for the second. The second binds more tightly here.

Compared with Cc1cc(OCCCc2c3n(c4c(-c5c(C)ncnc5C)c(Cl)ccc24)[C@H](C)CN(c2cccc4cccc(C(=O)O)c24)C3=O)cc(C)c1Cl [Example 255, 8-[(4R)-7-chloro-10-[3-(4-chloro-3,5-dimethyl-phenoxy)propyl]-6-(4,6-dimethylpyrimidin-5-yl)-4-methyl-1-oxo-3,4-dihydropyrazino[1,2-a]indol-2-yl]naphthalene-1-carboxylic acid], Cc1cc(OCCCc2c(C(=O)N3CCN(c4cccc(C(=O)O)c4)CC3)n(Cc3cccnc3)c3c(-c4c(C)nn(C)c4C)c(Cl)ccc23)cc(C)c1Cl [Example 735, 3-(4-(6-chloro-3-(3-(4-chloro-3,5-dimethylphenoxy)propyl)-1-(pyridin-3-ylmethyl)-7-(1,3,5-trimethyl-1H-pyrazol-4-yl)-1H-indole-2-carbonyl)piperazin-1-yl)benzoic acid] is 40-fold higher in Ki: 1.3 nM for the first, 52 nM for the second.
